Measurements reported in article PMC6274259, “New 3-Cyano-2-Substituted Pyridines Induce Apoptosis in MCF 7 Breast Cancer Cells” (Molecules, 2016).

Legend:
[1] = test system: MCF-7 cells; assay: Western blot analysis of protein expression; type: cell-based, human
Experimental: Total protein was extracted from treated and untreated cells using lysis buffer (10 mM Tris-HCl (pH 7.5), 1 mM EDTA, 1% Triton X-100, 150 mM NaCl, 1 mM dithiothretol, 10% glycerol, 0.2 mM phenylmethysulphonyl fluoride and protease inhibitors) for 30–50 min on ice. The extracts were centrifuged at 13,000× g for 15 min at 4 °C to remove cell debris. Folin Lowry (Pierce, Grand Island, NY, USA) protein assay was used to figure the protein concentration in the cell lysates. Proteins were resolved by electrophoresis on 8%–10% sodium dodecyl sulphate-polycrylamide gel loading equal amount of proteins per lane. The resolved proteins were transferred onto polyvinylidene difluoride (PVDF) membrane and then probed with primary antibody against the protein of interest prepared in 5% milk/PBS-T. The membrane was washed using phosphate buffer saline with Tween 20 (PBS-T) and then appropriate secondary antibody conjugated to horseradish peroxidase (HRP) was used for visualization of the bands using ECL chemiluminescence kit (GE, Fairfield, CT, USA). Anti-p27, anti-CDK2, anti-CDK4, anti-(p21), anti-(p53), anti-Bax, anti-Akt, anti-Bcl-2, anti-MDM2, anti-cytochrome C, anti-caspase-8, anti-procaspase-8, anti-FAS, anti-VEGF, anti-MMP-9, anti-β-catenin were purchased from SantaCruz (Dallas, TX, USA). Pixel density of the proteins studied was calculated using Image J, version 1.41o, NIH (Bethesda, MD, USA). The values obtained were first normalized to loading control β-actin and the fold change was measured by normalizing to that of the control (0 h) value. At least two independent experiments were performed.

[2] = test system: MCF-7 cells; assay: Enzyme linked immunosorbent apoptosis assay (Cell Death Detection ELISA PLUS); type: cell-based, human
Experimental: Compound 9a was further investigated for induction of apoptosis in MCF-7 cells using Cell Death Detection ELISA^PLUS which is used for the quantitative in vitro determination of cytoplasmic histone-associated DNA fragments (mono- and oligonucleosomes) in apoptosing cells.
Cells were seeded at a density of 2 × 10^4/ well in a 96-well plate and incubated for 24 h. […] An ELISA assay was performed using Cell Death Detection ELISA PLUS kit (Roche-Applied Science, Indianapolis, IN, USA) for the quantitative in vitro determination of cytoplasmic histone-associated DNA fragments (mono- and oligonucleosomes) in apoptosing cells. Briefly, cells were lysed with 200-μL lysis buffer for 30 min at room temperature. The lysate was centrifuged at 200 g for 10 min. 150 μL of supernatant was collected, of which 20 μL was incubated with anti-histone biotin and anti-DNA peroxidase at room temperature for 2 h. After washing with incubation buffer three times, 100 μL of substrate solution (2,2′-azino-di(3-ethylbenzthiazolinsulphonic acid) was added to each well and incubated for 15–20 min at room temperature. The absorbance was measured using an ELISA reader (Spectra Max Plus) at 405 nm. The control group was cells without compounds treatment. Each assay was done in triplicate and the standard deviation was determined.

**Q.** What does the source list for COc1ccc(-c2cc(-c3ccc(OC)c(OC)c3)c(C#N)c(OCC(=O)NNC(=O)c3ccccc3)n2)cc1OC [Compound 9a, N'-[2-(3-cyano-4,6-bis(3,4-dimethoxyphenyl)pyridin-2-yloxy)acetyl]benzohydrazide]?
**A.** expression of CDK2 ([1]; 2 μM, 24 h): decreased; expression of CDK4 ([1]; 2 μM, 24 h): decreased; expression of MMP-9 ([1]; 2 μM, 24 h): significantly inhibited; expression of VEGF ([1]; 2 μM, 24 h): significantly inhibited; expression of caspase-3 ([1]; 2 μM, 24 h): up-regulated; expression of p27 ([1]; 2 μM, 24 h): increased; level of Akt ([1]; 2 μM, 24 h): decreased; level of Bcl-2 protein ([1]; 2 μM, 24 h): decreased; level of MDM2 ([1]; 2 μM, 24 h): decreased; level of procaspase 3 ([1]; 2 μM, 24 h): decreased; expression of cytochrome c in cytoplasm ([1]; 2 μM, 24 h, cytosol fraction): increased; expression of cytochrome c in mitochondria ([1]; 2 μM, 24 h, mitochondrial fraction): reduced; level of Bax ([1]; 2 μM, 24 h, vs untreated cells): increased; level of p21 ([1]; 2 μM, 24 h, vs untreated cells): increased; level of p53 ([1]; 2 μM, 24 h, vs untreated cells): increased; expression of phospho AKT ([1]; 0.5, 1 and 2 μM, 24 h): reduced the expression of phospho AKT and β-catenin in dose-dependent manner; expression of β-catenin ([1]; 0.5, 1 and 2 μM, 24 h): reduced the expression of phospho AKT and β-catenin in dose-dependent manner; expression of FAS ([1]; treated vs untreated): no significant change; expression of caspase-8 ([1]; treated vs untreated): no significant change; expression of procaspase-8 ([1]; treated vs untreated): no significant change; induction of apoptosis, concentration dependence ([2]; 0.1 to 4 μM): increased in a dose dependent fashion; induction of apoptosis, exposure time with optimum value ([2]; exposure 3 h to 48 h): 24 h
